Source: PubChem BioAssay (NCI)
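1) Cells in 96-well plates. 2) Compound, 48 h, 5 concentrations. 3) Linear interpolation between surrounding doses. 4) Unreached endpoint = highest concentration. The concentration for 50% growth inhibition is given as GI50. Definition used: TGI = concentration required for complete inhibition of growth.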

Tests used:
Test in all cases: growth of human tumour cells (NCI), 48 h
[1] = tested on: SNB-75 CNS
[2] = tested on: OVCAR-4 ovarian
[3] = tested on: U251 CNS
[4] = tested on: A498 renal
[5] = tested on: UACC-62 melanoma
[6] = tested on: MCF7 breast
[7] = tested on: MALME-3M melanoma
[8] = tested on: A549 NSCLC
[9] = tested on: UACC-257 melanoma
[10] = tested on: SN12C renal

| Compound | GI50 [1] | TGI [1] | GI50 [2] | TGI [2] | GI50 [3] | TGI [3] | GI50 [4] | TGI [4] | GI50 [5] | TGI [5] | GI50 [6] | TGI [6] | GI50 [7] | TGI [7] | GI50 [8] | TGI [8] | GI50 [9] | TGI [9] | GI50 [10] | TGI [10] |
| --- | --- | --- | --- | --- | --- | --- | --- | --- | --- | --- | --- | --- | --- | --- | --- | --- | --- | --- | --- | --- |
| COc1ccc2c(c1)c1nc3cc(C)c(C)cc3nc1n2CCN(C)C | 1.29 µM | 4.14 µM | 1.03 µM | 2.43 µM | 0.57 µM | 2.19 µM | 1.25 µM | 2.58 µM | 0.884 µM | 2.48 µM | 0.333 µM | 1.42 µM | 1.11 µM | 2.53 µM | 0.495 µM | 2.19 µM | 1.26 µM | 3.17 µM | 0.534 µM | 1.99 µM |
| Cc1cc([N+](=O)[O-])ccc1NS(=O)(=O)c1cc(Cl)ccc1Cl | 2.98 µM | 38.3 µM | 2.42 µM | > 30.8 µM | 2.9 µM | 17.4 µM | 1.43 µM | 6.24 µM | 1.29 µM | 17.9 µM | 2.51 µM | > 49.4 µM | 2.33 µM | 6.83 µM | 2.91 µM | > 51 µM | 2.02 µM | 7.55 µM | 2.87 µM | > 100 µM |
| COc1ccc(-c2nn(-c3cccc(Cl)c3)cc2-c2c(C#N)c(=O)n3[nH]c(-c4ccc(C)cc4)nc3c2C#N)cc1 | 0.828 µM | 2.4 µM | 1.09 µM | 4 µM | 0.797 µM | 1.59 µM | 0.575 µM | 7.63 µM | 2.54 µM | 10.2 µM | 3.22 µM | 11.4 µM | 2.16 µM | 9.12 µM | 1.85 µM | 12.4 µM | 6.68 µM | 16.7 µM | 4.52 µM | 11.5 µM |
| CCn1c2ccc(C(=O)CCCN(C)C)cc2c2cc(C(=O)CCCN(C)C)ccc21 |  | 11.4 µM |  | 4.17 µM |  | 8.46 µM |  | 4.51 µM |  | 20.8 µM |  | 13.1 µM |  | 11 µM |  | 3.27 µM |  | 14 µM |  | 5.87 µM |
| Cc1cccc(Cl)c1NC(=O)c1cnc(Nc2cc(N3CCOCC3)cc(N3CCOCC3)c2)s1 | 0.00147 µM | 0.0176 µM | > 4.05 µM | > 10 µM | > 3.85 µM | > 10 µM | 0.0248 µM | 0.473 µM | 1.7 µM | > 10 µM | > 4.47 µM | > 10 µM | > 4.82 µM | > 10 µM | 0.158 µM | > 10 µM | > 7.93 µM | > 10 µM | 0.0535 µM | > 10 µM |
| O=C(/C=C/c1cccc([N+](=O)[O-])c1)c1ccc(O)c(CN2CCN(c3cc4c(cc3F)c(=O)c(C(=O)O)cn4C3CC3)CC2)c1 | 1.22 µM | 2.51 µM | 1.61 µM | 3.07 µM | 1.17 µM | 2.62 µM | 1.35 µM | 2.84 µM | 1.66 µM | 3.45 µM | 0.332 µM | 1.44 µM | 1.93 µM | 4.25 µM | 3.1 µM | 17.2 µM | 1.69 µM | 3.35 µM | 1.75 µM | 3.45 µM |
| CC(C)[NH-].CC(C)[NH-].O.O.[Cl][Pt+2][Cl] | 94.4 µM | 308 µM | 28.7 µM | 106 µM | 27.3 µM | 107 µM | 150 µM | 358 µM | 26.7 µM | 128 µM | 19.4 µM | 102 µM | 19.4 µM | 57.8 µM | 33.9 µM | 213 µM | 87.4 µM | 279 µM | 35.9 µM | 133 µM |
| Cc1ccc(C(=O)N2CCN(C(=O)c3ccc(C)cc3)c3ccccc32)cc1 |  | > 100 µM |  | > 100 µM |  | 24.9 µM |  | > 74.1 µM |  | > 100 µM |  | > 100 µM |  | > 100 µM |  | > 100 µM |  | > 100 µM |  | > 100 µM |
| COc1ccc2nc3cc([N+](=O)[O-])ccc3c(NCCCN(CCO)CCO)c2c1 | 10.9 µM | 22.9 µM | 3.81 µM | 11.4 µM | 3.57 µM | 13.4 µM | 18 µM | 38.6 µM | 3.34 µM | 11.6 µM | 0.889 µM | 4.95 µM | 2.21 µM | 5.3 µM | 10.9 µM | 24.6 µM | 2.82 µM | 7.55 µM | 3.92 µM | 14.7 µM |
| N#Cc1ccc(C2C3=C(CCCC3=O)OC3=C2C(=O)c2ccccc2C3=O)cc1 (centres undefined) | 1.35 µM | 2.65 µM | 0.265 µM | 1.07 µM | 1.7 µM | 3.16 µM | 13.9 µM | 27 µM | 2.06 µM | 4.02 µM | 0.664 µM | 2.65 µM | 1.55 µM | 3.05 µM | 7.66 µM | 22.3 µM | 1.55 µM | 2.94 µM | 1.16 µM | 3.16 µM |
| O=C1c2cc(-c3ccccc3)ccc2-c2c1c1ccc([N+](=O)[O-])cc1c(=O)n2CCCBr | 15.1 µM | > 26.2 µM | > 50 µM | > 50 µM | > 31.9 µM | > 50 µM | 32.5 µM | > 50 µM | 49.4 µM | > 50 µM | > 46.4 µM | > 50 µM |  | > 43.4 µM | > 50 µM | > 50 µM | > 50 µM | > 50 µM | > 50 µM | > 50 µM |
| COc1cc(F)cc([C@@H](CO)NC(=O)[C@@H](C)N2Cc3ccc(-c4nc(NC5CCOCC5)ncc4Cl)cc3C2=O)c1 | 12.5 µM | 54 µM | 7.91 µM | > 91.6 µM | 8.72 µM | > 100 µM | 0.0878 µM | 5.86 µM | < 0.01 µM | 0.0248 µM | 9.67 µM | 49.6 µM | < 0.01 µM | < 0.01 µM | 0.566 µM | > 100 µM | < 0.01 µM | 0.0367 µM | 1.33 µM | > 100 µM |
| COc1ccc(-c2cn(-c3cccc(C(=O)/C=C/c4ccc(O)c(OC)c4)c3)c(=O)[nH]2)cc1 | 4.75 µM | > 80.2 µM | 4.03 µM | > 24.4 µM | 2.86 µM | 15.3 µM | 3.51 µM | 13.1 µM | 3.18 µM | 16.1 µM | 2.66 µM | 22 µM | 3.98 µM | 24.4 µM | 3.64 µM | > 53 µM | 8.03 µM | 39.3 µM | 3.47 µM | > 100 µM |
